Here are results for 8 compounds from US10785975B2, “Water and feed antimicrobial preservative” (priority 2009, dated 2020).

The subject of this assay is Salmonella typhimurium. In words: Example 1: effect of pH buffering of acetic and propionic acid on antimicrobial activity in water. It is filed as cell-based. The following applies: for MIC at 24 HR / MIC at 4 Hr: Minimum Inhibitory Concentrations, by linear regression over 0.025-0.1% acid solutions. As for the experimental part: Propionic and acetic acids were buffered with ammonium hydroxide to pHs ranging from 1 to 7. Acid contents of the buffered solutions were determined by a weight to weight ratio calculation to obtain the same acid content in the test solutions. […] The pHs of the deionized water solutions were recorded and any problems with solubility noted.
100 ul of a nutrient broth culture of Salmonella typhimurium was added to each dilution tube. After addition, tubes were vortexed and allowed to stand. At 4 and 24 hours after addition of the inoculum, 100 ul of the solution was plated on Standard Plate agar (triplicate plates). Plates were incubated at 37° C. for 24 hours prior to enumeration. The minimum effective dose of each acid was determined by linear regression.

[1] abbreviates: Product Conc. 0.025 (% acid solution in water).
[2] abbreviates: Product Conc. 0.05 (% acid solution in water).
The mark [3] stands for this setting: Product Conc. 0.075 (% acid solution in water).
The mark [4] stands for this setting: Product Conc. 0.1 (% acid solution in water).

On to `CC(=O)O` [Acetic pH 1, Acetic acid], for which the “MIC at 24 HR” value (pH 1) worked out at 0.065. Further, the “Salmonella at time Interval 4 hr % reduction” value is, setting by setting: under setting [1], 41%; under setting [2], 50%; under setting [3], 59%; under setting [4], 65%. Also, the “Salmonella at time Interval 4 hr cfu/g” value reads like this: under setting [1], 883 cfu/g; under setting [2], 750 cfu/g; under setting [3], 617 cfu/g; under setting [4], 520 cfu/g. For the same compound, the “Salmonella at time Interval 24 hr % reduction” value by setting is: under setting [1], 91%; under setting [2], 99%; under setting [3], 99%; under setting [4], 99%. Moreover, the “Salmonella at time Interval 24 hr cfu/g” value is, setting by setting: under setting [1], 107 cfu/g; under setting [2], 7 cfu/g; under setting [3], 17 cfu/g; under setting [4], 7 cfu/g.

In the case of `CC(=O)O` [Acetic pH 2, Acetic acid], under “pH 2”, the “MIC at 4 Hr” value is listed as 0.142 and the “MIC at 24 HR” value turned out to be 0.067. In addition, under setting [1], the “Salmonella at time Interval 4 hr % reduction” value is reported as 39%, the “Salmonella at time Interval 4 hr cfu/g” value was found to be 920 cfu/g, the “Salmonella at time Interval 24 hr % reduction” value is reported as 86% and the “Salmonella at time Interval 24 hr cfu/g” value stood at 170 cfu/g. Also, under setting [2], the “Salmonella at time Interval 4 hr % reduction” value turned out to be 46%, the “Salmonella at time Interval 4 hr cfu/g” value is reported as 817 cfu/g, the “Salmonella at time Interval 24 hr % reduction” value turned out to be 96% and the “Salmonella at time Interval 24 hr cfu/g” value is listed as 50 cfu/g. In addition, under setting [3], the “Salmonella at time Interval 4 hr % reduction” value came to 55%, the “Salmonella at time Interval 4 hr cfu/g” value came to 673 cfu/g, the “Salmonella at time Interval 24 hr % reduction” value is on record as 98% and the “Salmonella at time Interval 24 hr cfu/g” value is given as 20 cfu/g. Besides, under setting [4], the “Salmonella at time Interval 4 hr % reduction” value was 55%, the “Salmonella at time Interval 4 hr cfu/g” value was 670 cfu/g, the “Salmonella at time Interval 24 hr % reduction” value came to 99% and the “Salmonella at time Interval 24 hr cfu/g” value is given as 17 cfu/g.

Consider `CC(=O)O` [Acetic pH 4, Acetic acid], for which, for the setting “pH 4”, the “MIC at 4 Hr” value came to 0.207 and the “MIC at 24 HR” value came out at 0.096. Also, under setting [1], the “Salmonella at time Interval 4 hr % reduction” value is given as 29%, the “Salmonella at time Interval 4 hr cfu/g” value came to 1067 cfu/g, the “Salmonella at time Interval 24 hr % reduction” value worked out at 54% and the “Salmonella at time Interval 24 hr cfu/g” value is recorded as 543 cfu/g. Under setting [2], the “Salmonella at time Interval 4 hr % reduction” value came out at 22%, the “Salmonella at time Interval 4 hr cfu/g” value stood at 1167 cfu/g, the “Salmonella at time Interval 24 hr % reduction” value worked out at 66% and the “Salmonella at time Interval 24 hr cfu/g” value is given as 407 cfu/g. For the same compound, under setting [3], the “Salmonella at time Interval 4 hr % reduction” value is recorded as 27%, the “Salmonella at time Interval 4 hr cfu/g” value is given as 1097 cfu/g, the “Salmonella at time Interval 24 hr % reduction” value is reported as 78% and the “Salmonella at time Interval 24 hr cfu/g” value came to 263 cfu/g. Also, under setting [4], the “Salmonella at time Interval 4 hr % reduction” value is given as 22%, the “Salmonella at time Interval 4 hr cfu/g” value worked out at 1167 cfu/g, the “Salmonella at time Interval 24 hr % reduction” value is given as 84% and the “Salmonella at time Interval 24 hr cfu/g” value came to 183 cfu/g.

For `CC(=O)O` [Acetic pH 5, Acetic acid], for the setting “pH 5”, the “MIC at 4 Hr” value came to 0.238 and the “MIC at 24 HR” value is 0.210. Under setting [1], the “Salmonella at time Interval 4 hr % reduction” value worked out at 16%, the “Salmonella at time Interval 4 hr cfu/g” value is on record as 1267 cfu/g, the “Salmonella at time Interval 24 hr % reduction” value was 16% and the “Salmonella at time Interval 24 hr cfu/g” value is 993 cfu/g. In addition, under setting [2], the “Salmonella at time Interval 4 hr % reduction” value is 0%, the “Salmonella at time Interval 4 hr cfu/g” value worked out at 1533 cfu/g, the “Salmonella at time Interval 24 hr % reduction” value is 26% and the “Salmonella at time Interval 24 hr cfu/g” value stood at 873 cfu/g. For the same compound, under setting [3], the “Salmonella at time Interval 4 hr % reduction” value is reported as 9%, the “Salmonella at time Interval 4 hr cfu/g” value is listed as 1367 cfu/g, the “Salmonella at time Interval 24 hr % reduction” value is given as 32% and the “Salmonella at time Interval 24 hr cfu/g” value is reported as 805 cfu/g. Moreover, under setting [4], the “Salmonella at time Interval 4 hr % reduction” value is reported as 14%, the “Salmonella at time Interval 4 hr cfu/g” value came out at 1300 cfu/g, the “Salmonella at time Interval 24 hr % reduction” value came out at 49% and the “Salmonella at time Interval 24 hr cfu/g” value is on record as 597 cfu/g.

`CC(=O)O` [Acetic pH 6, Acetic acid]: under setting [1], the “Salmonella at time Interval 4 hr % reduction” value is reported as 0%, the “Salmonella at time Interval 4 hr cfu/g” value turned out to be 1500 cfu/g, the “Salmonella at time Interval 24 hr % reduction” value was found to be 1% and the “Salmonella at time Interval 24 hr cfu/g” value is on record as 1167 cfu/g. Moreover, under setting [2], the “Salmonella at time Interval 4 hr % reduction” value is reported as 0%, the “Salmonella at time Interval 4 hr cfu/g” value turned out to be 1767 cfu/g, the “Salmonella at time Interval 24 hr % reduction” value is listed as 0% and the “Salmonella at time Interval 24 hr cfu/g” value was determined as 1400 cfu/g. Also, under setting [3], the “Salmonella at time Interval 4 hr % reduction” value is 0%, the “Salmonella at time Interval 4 hr cfu/g” value amounted to 1667 cfu/g, the “Salmonella at time Interval 24 hr % reduction” value is given as 0% and the “Salmonella at time Interval 24 hr cfu/g” value stood at 1400 cfu/g. For the same compound, under setting [4], the “Salmonella at time Interval 4 hr % reduction” value is listed as 0%, the “Salmonella at time Interval 4 hr cfu/g” value is recorded as 1633 cfu/g, the “Salmonella at time Interval 24 hr % reduction” value was 0% and the “Salmonella at time Interval 24 hr cfu/g” value came to 1433 cfu/g.

On to `CC(=O)O` [Acetic pH 7, Acetic acid], for which, under setting [1], the “Salmonella at time Interval 4 hr % reduction” value was 0%, the “Salmonella at time Interval 4 hr cfu/g” value was determined as 1567 cfu/g and the “Salmonella at time Interval 24 hr % reduction” value was 0%. Also, under setting [2], the “Salmonella at time Interval 4 hr % reduction” value was determined as 0%, the “Salmonella at time Interval 4 hr cfu/g” value stood at 1600 cfu/g, the “Salmonella at time Interval 24 hr % reduction” value came to 0% and the “Salmonella at time Interval 24 hr cfu/g” value was 1433 cfu/g. Moreover, under setting [3], the “Salmonella at time Interval 4 hr % reduction” value came to 2%, the “Salmonella at time Interval 4 hr cfu/g” value was 1467 cfu/g, the “Salmonella at time Interval 24 hr % reduction” value came to 0% and the “Salmonella at time Interval 24 hr cfu/g” value was 1433 cfu/g. Besides, under setting [4], the “Salmonella at time Interval 4 hr % reduction” value is 0%, the “Salmonella at time Interval 4 hr cfu/g” value was 1567 cfu/g and the “Salmonella at time Interval 24 hr % reduction” value worked out at 0%.

On to `CCC(=O)O` [Propionic pH 1, Propionic acid], for which, for the setting “pH 1”, the “MIC at 4 Hr” value was 0.131 and the “MIC at 24 HR” value is listed as 0.066. Besides, under setting [1], the “Salmonella at time Interval 4 hr % reduction” value worked out at 20%, the “Salmonella at time Interval 4 hr cfu/g” value is on record as 1200 cfu/g, the “Salmonella at time Interval 24 hr % reduction” value came to 89% and the “Salmonella at time Interval 24 hr cfu/g” value stood at 133 cfu/g. Besides, under setting [2], the “Salmonella at time Interval 4 hr % reduction” value stood at 39%, the “Salmonella at time Interval 4 hr cfu/g” value is 923 cfu/g, the “Salmonella at time Interval 24 hr % reduction” value stood at 97% and the “Salmonella at time Interval 24 hr cfu/g” value amounted to 37 cfu/g. For the same compound, under setting [3], the “Salmonella at time Interval 4 hr % reduction” value was determined as 65%, the “Salmonella at time Interval 4 hr cfu/g” value amounted to 530 cfu/g, the “Salmonella at time Interval 24 hr % reduction” value worked out at 98% and the “Salmonella at time Interval 24 hr cfu/g” value was 23 cfu/g. In addition, under setting [4], the “Salmonella at time Interval 4 hr % reduction” value came out at 70%, the “Salmonella at time Interval 4 hr cfu/g” value worked out at 450 cfu/g, the “Salmonella at time Interval 24 hr % reduction” value is 99% and the “Salmonella at time Interval 24 hr cfu/g” value is on record as 10 cfu/g.

Turning to `CCC(=O)O` [Propionic pH 2, Propionic acid], for the setting “pH 2”, the “MIC at 4 Hr” value is 0.120 and the “MIC at 24 HR” value stood at 0.064. Under setting [1], the “Salmonella at time Interval 4 hr % reduction” value stood at 29%, the “Salmonella at time Interval 4 hr cfu/g” value turned out to be 1067 cfu/g, the “Salmonella at time Interval 24 hr % reduction” value stood at 94% and the “Salmonella at time Interval 24 hr cfu/g” value was 70 cfu/g. Under setting [2], the “Salmonella at time Interval 4 hr % reduction” value was determined as 51%, the “Salmonella at time Interval 4 hr cfu/g” value stood at 733 cfu/g, the “Salmonella at time Interval 24 hr % reduction” value was 99% and the “Salmonella at time Interval 24 hr cfu/g” value was determined as 10 cfu/g. Moreover, under setting [3], the “Salmonella at time Interval 4 hr % reduction” value amounted to 68%, the “Salmonella at time Interval 4 hr cfu/g” value came out at 477 cfu/g, the “Salmonella at time Interval 24 hr % reduction” value is given as 99% and the “Salmonella at time Interval 24 hr cfu/g” value is recorded as 13 cfu/g. Also, under setting [4], the “Salmonella at time Interval 4 hr % reduction” value is 75%, the “Salmonella at time Interval 4 hr cfu/g” value was found to be 380 cfu/g, the “Salmonella at time Interval 24 hr % reduction” value came to 99% and the “Salmonella at time Interval 24 hr cfu/g” value was 7 cfu/g.
